pIC50: −log10 of the molar value. One block for each compound: values may come before it.
Columns and labels:
FAK = FAK (Homo sapiens, UniProt Q05397); assay: KinomeScan competition binding assay, FAK
[1] = human plasma, Cmax at steady state; ref 1-28 of Supplementary Text; cited from earlier work
RPS6KB1 = RPS6KB1 (Homo sapiens, UniProt P23443); assay: KinomeScan competition binding assay, RPS6KB1
STK35 = STK35 (Homo sapiens, UniProt Q8TDR2); assay: KinomeScan competition binding assay, STK35
[2] = test system: hiPSC CM (iCell Cardiomyocytes); assay: Cellular impedance; type: cell-based, human; conditions: 3 µM, 2 h exposure; for change in beat amplitude / change in beat rate: significant = >3*SD of vehicle
[3] = test system: hiPSC CM (iCell Cardiomyocytes); assay: Cellular ATP levels; type: cell-based, human; conditions: 3 µM, 24 h after compound addition

RPS6KB1, sequence (P23443 whole entry): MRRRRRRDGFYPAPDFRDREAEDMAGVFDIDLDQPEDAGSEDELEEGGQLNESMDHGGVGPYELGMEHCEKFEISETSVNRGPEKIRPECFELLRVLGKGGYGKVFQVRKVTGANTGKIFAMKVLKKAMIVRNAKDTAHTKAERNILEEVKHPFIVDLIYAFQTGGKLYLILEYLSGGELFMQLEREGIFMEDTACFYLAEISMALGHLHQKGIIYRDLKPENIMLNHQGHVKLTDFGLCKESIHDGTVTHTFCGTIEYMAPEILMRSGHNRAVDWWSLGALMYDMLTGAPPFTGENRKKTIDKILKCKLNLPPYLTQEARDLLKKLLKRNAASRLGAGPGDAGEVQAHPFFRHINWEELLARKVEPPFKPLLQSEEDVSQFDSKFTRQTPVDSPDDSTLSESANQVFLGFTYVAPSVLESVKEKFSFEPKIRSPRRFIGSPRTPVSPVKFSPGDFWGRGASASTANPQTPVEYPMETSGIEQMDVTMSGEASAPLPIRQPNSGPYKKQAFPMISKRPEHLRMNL
FAK, sequence (Q05397 whole entry): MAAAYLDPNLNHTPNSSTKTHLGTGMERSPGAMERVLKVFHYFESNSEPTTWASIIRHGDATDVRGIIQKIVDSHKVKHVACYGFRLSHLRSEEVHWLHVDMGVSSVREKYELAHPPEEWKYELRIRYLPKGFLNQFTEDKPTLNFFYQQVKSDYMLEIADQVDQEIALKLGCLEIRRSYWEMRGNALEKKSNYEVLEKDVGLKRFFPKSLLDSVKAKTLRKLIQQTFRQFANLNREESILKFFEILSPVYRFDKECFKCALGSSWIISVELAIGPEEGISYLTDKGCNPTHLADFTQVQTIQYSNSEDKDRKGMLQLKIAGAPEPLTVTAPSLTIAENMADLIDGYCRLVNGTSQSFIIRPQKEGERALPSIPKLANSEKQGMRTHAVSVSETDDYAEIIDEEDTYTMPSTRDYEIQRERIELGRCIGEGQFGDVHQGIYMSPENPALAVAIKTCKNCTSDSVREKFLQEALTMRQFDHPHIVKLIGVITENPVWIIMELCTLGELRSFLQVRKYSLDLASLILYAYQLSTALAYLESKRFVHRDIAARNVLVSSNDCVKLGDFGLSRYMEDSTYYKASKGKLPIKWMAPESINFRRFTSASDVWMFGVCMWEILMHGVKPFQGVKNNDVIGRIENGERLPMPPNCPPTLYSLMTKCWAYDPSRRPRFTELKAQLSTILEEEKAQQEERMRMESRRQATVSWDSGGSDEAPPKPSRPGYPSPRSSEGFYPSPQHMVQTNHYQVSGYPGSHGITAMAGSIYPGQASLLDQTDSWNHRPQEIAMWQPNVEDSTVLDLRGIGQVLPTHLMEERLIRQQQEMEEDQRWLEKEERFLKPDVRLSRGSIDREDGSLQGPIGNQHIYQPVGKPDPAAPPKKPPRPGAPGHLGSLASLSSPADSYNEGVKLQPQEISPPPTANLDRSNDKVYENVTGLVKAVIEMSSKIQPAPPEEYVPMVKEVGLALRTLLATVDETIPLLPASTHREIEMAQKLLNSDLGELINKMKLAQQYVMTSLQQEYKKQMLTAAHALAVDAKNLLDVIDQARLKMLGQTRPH
STK35, sequence (Q8TDR2 whole entry): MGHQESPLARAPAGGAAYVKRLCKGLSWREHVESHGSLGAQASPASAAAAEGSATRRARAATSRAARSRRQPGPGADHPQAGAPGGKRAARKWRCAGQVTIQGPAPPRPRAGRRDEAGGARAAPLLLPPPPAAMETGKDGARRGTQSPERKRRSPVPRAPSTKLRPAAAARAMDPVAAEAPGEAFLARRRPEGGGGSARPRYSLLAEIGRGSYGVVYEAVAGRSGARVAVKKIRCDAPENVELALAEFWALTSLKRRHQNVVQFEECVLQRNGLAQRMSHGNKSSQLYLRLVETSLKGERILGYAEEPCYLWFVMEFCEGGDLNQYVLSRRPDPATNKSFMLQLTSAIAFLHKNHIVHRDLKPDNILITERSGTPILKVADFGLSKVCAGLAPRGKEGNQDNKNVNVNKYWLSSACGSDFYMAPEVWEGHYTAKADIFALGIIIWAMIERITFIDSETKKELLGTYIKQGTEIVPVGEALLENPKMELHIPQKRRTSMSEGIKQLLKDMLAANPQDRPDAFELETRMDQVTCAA

SMILES: CNC(=O)c1cc(COc2nnc(Nc3ccc(Cl)cc3)c3ccoc23)ccn1 [Telatinib]
pIC50 (FAK): < 4.49
Cmaxss [1]: 2.0 to 3.6 µM
pIC50 (RPS6KB1): < 4.49
pIC50 (STK35): < 4.49

SMILES: COc1cc2nccc(Oc3ccc(NC(=O)Nc4cc(C)on4)c(Cl)c3)c2cc1OC [Tivozanib]
pIC50 (FAK): 5.51
Cmaxss [1]: 0.2 µM
pIC50 (RPS6KB1): < 5.49
pIC50 (STK35): < 5.49

SMILES: CCn1c(-c2nonc2N)nc2c(C#CC(C)(C)O)ncc(OC[C@H]3CCCNC3)c21 [GSK-690693]
change in beat amplitude [2]: increased amplitude
change in beat rate [2]: independent of a change in beat rate

SMILES: CO[C@@H]1[C@H](N(C)C(=O)c2ccccc2)C[C@H]2O[C@]1(C)n1c3ccccc3c3c4c(c5c6ccccc6n2c5c31)C(=O)NC4 [PKC-412]
change in beat amplitude [2]: decreased amplitude
change in beat rate [2]: increased beat rate

SMILES: CN[C@@H]1C[C@H]2O[C@@](C)([C@@H]1OC)n1c3ccccc3c3c4c(c5c6ccccc6n2c5c31)C(=O)NC4 [staurosporine]
cytotoxicity (decreased cellular ATP levels and decreased cell index) [3]: induce cell death

SMILES: C[C@]12O[C@H](C[C@]1(O)CO)n1c3ccccc3c3c4c(c5c6ccccc6n2c5c31)CNC4=O [CEP-701]
change in beat amplitude [2]: decreased amplitude
change in beat rate [2]: increased beat rate

SMILES: COc1cc2nccc(Oc3ccc(NC(=O)C4(C(=O)Nc5ccc(F)cc5)CC4)cc3)c2cc1OC [Cabozantinib]
pIC50 (FAK): 5.55
Cmaxss [1]: 2.8 µM
pIC50 (RPS6KB1): 4.88
pIC50 (STK35): 5.24

Now from value to compound, other results behind:

effect on CM beating (beat rate or amplitude) [2]: induced CM beating effects
change in beat amplitude [2]: independent of a change in amplitude
change in beat rate [2]: increased beat rate
SMILES: OCCn1cc(-c2ccc3c(c2)CC/C3=N\O)c(-c2ccncc2)n1 [GDC-0879]

effect on CM beating (beat rate or amplitude) [2]: induced CM beating effects
SMILES: Cc1cc2c(F)c(Oc3ncnn4cc(OC[C@@H](C)O)c(C)c34)ccc2[nH]1 [BMS-540215]

pIC50 (STK35): < 5.00
SMILES: Cc1cc(Nc2cc(N3CCN(C)CC3)nc(/C=C/c3ccccc3)n2)n[nH]1 [ENMD-2076]
Cmaxss [1]: 0.6 to 1.5 µM

pIC50 (FAK): 7.00
pIC50 (RPS6KB1): 5.52
pIC50 (STK35): < 5.49
SMILES: NC(=O)Nc1cc(-c2cccc(F)c2)sc1C(=O)N[C@H]1CCCNC1 [AZD7762]

effect on CM beating (beat rate or amplitude) [2]: no effect on CM beating
SMILES: Cc1cnc(Nc2ccc(OCCN3CCCC3)cc2)nc1Nc1cccc(S(=O)(=O)NC(C)(C)C)c1 [TG-101348]

change in beat amplitude [2]: increased amplitude
change in beat rate [2]: independent of a change in beat rate
SMILES: Cc1[nH]nc2ccc(-c3cncc(OC[C@@H](N)Cc4ccccc4)c3)cc12 [A-674563]

effect on CM beating (beat rate or amplitude) [2]: no effect on CM beating
SMILES: Cc1[nH]c(/C=C2\C(=O)Nc3ccc(F)cc32)c(C)c1C(=O)NC[C@H](O)CN1CCOCC1 [SU14813]
